Tested on: HCT-116 colorectal cancer cells
Experiment: Cell viability (alamarBlue) assay in HCT-116 cells
Assay type: cell-based, Human
Settings: 72 hr exposure, four parameter logistic fit
Experimental: Human HCT-116 colorectal cancer cells (CRC) and MDA-MB-231 breast cancer cells were purchased from the American Type Culture Collection (Manassas, Va.) and grown following ATCC recommendations, in the presence of fetal bovine serum (10%), 2 mM L-glutamine and antibiotics (100 IU/ml penicillin and 100 μg/ml streptomycin, Sigma). Cells were maintained at 37° C., 5% CO2 atmosphere.
Cell viability was measured using the alamarBlue assay (Invitrogen). In brief, cells were plated in 96-well plates in triplicate at 5K cells per well and incubated at 37° C., 5% CO2 atmosphere for 24 hr prior to the addition of drug or vehicle (0.3% DMSO) to the culture medium. After 72 hr, 10 μl/well alamarBlue was added to the wells and incubated for an additional 3 hr at 37° C., 5% CO2 atmosphere. Fluorescence ([…]/590EM nM) was measured with a SpectraMax microplate reader (Molecular Devices) and the resulting data were used to calculate cell viability, normalized to vehicle control. […]
Combinations between ganetespib and cisplatin were then performed in HCT-116 cells concurrently based on the IC50 for each agent in matrix format with 54 combination pairs for each drug. The combined drugs, as well as each drug alone, were incubated with the cells for 3 days and the surviving fraction of cells relative to control was determined using the alamarBlue assay.

Row | IC50 (Homo sapiens) [µM] | Compound | IC50 [µM]
1 |  | N.N.[Cl][Pt][Cl] [cisplatin] | ~5.7
2 | ~0.032 | CC(C)c1cc(-c2nnc(O)n2-c2ccc3c(ccn3C)c2)c(O)cc1O [ganetespib, 3-(2,4-DIHYDROXY-5- ISOPROPYL-PHENYL)-4-(1- METHYL-INDOL-5-YL)-5- HYDROXY-[1,2,4] TRIAZOLE] | 
